Source: a melting point compilation (Tetko et al.; mined from patent text by program, amines drawn as free bases though some values may be those of a salt)

melting point | SMILES
218 °C | CC(C)(C)C1=NN(c2ccc(C(=O)O)cc2)C(c2cccc(F)c2)C1 (centres undefined)
67 °C | CCCCC(Cc1ccc(OCCN(CC)CC)cc1)(C(=O)NO)S(=O)(=O)c1ccc(OC)cc1 (centres undefined)
76 to 78 °C | CCOc1ccc(NCc2cc(OC)c(OC)c(OC)c2)cc1
207 °C | CCNS(=O)(=O)c1cccc(NC(=O)c2cnn3c(C(F)(F)F)cc(-c4ccc(C(F)(F)F)cc4)nc23)c1
220 to 228 °C | COc1cc(CN2CCN(c3ccc(C(=O)NC4CC4)cc3C)CC2)cc2c1OCC(=O)N2
172 to 175 °C | Cc1nnc2ncc(-c3ccccc3Cl)nn12
142 to 143 °C | CSCc1cn(C)c2ccc(C)cc2c1=O
176 to 178 °C | COc1ccc(CN2CC(C(=O)O)CC2=O)cc1OC (centres undefined)
176 °C | CS(=O)(=O)C(=C1CN(C(c2ccccc2)c2ccccc2)C1)c1cc(F)ccc1F
> 260 °C | O=C(O)c1ccc(-c2ccc(Cl)cc2)nc1
136 °C | c1ccc(-c2cn[nH]c2)nc1
196 to 198 °C | Clc1cccc(Cn2cnc3c(-c4ccco4)nc(Cl)nc32)c1
141 to 143 °C | CCCCc1ncc(CNC(Cc2ccccc2)C(=O)O)n1Cc1ccccc1Cl (centres undefined)
156 °C | COC(=O)C=Cc1ccc(C(=O)O)s1
96 to 100 °C | O=C(COCc1ccccc1)NC(C(=O)Nc1n[nH]c(=S)s1)c1ccccc1 (centres undefined)
> 220 °C | Nc1cccc(-c2ccc(CCN3CCN(C4CCc5ccccc5C4)CC3)cc2)n1 (centres undefined)
70 to 71 °C | O=C(CCl)CCCc1ccc(CCCC(=O)CCl)cc1
143 °C | CCCCn1c(=O)c(C#N)c(N2CCN(C(=O)c3cccs3)CC2)c2cccnc21
317 to 319 °C | N=C(NO)c1ccc(-c2cccc(-c3nc4cc(C(=N)NO)ccc4[nH]3)c2)cc1
166 to 168 °C | CCOC(=O)c1ccc(CNc2ccncc2[N+](=O)[O-])cc1
90 to 110 °C | COCCNC(=O)C(NC(=O)OCc1ccccc1)c1ccc2c(c1)CCO2 (centres undefined)
125 to 126 °C | CCCCCCc1ccc(S(=O)(=O)Nc2nncs2)cc1
180 °C | COc1ccc2ccc(N3C(=O)c4ccccc4C3CC(=O)CCc3ccccc3)nc2n1 (centres undefined)
> 268 °C | Oc1ccc(-c2ncc3ncc(Nc4ccncc4)cc3n2)cc1

melting point | SMILES
158 to 160 °C | N#Cc1ccc(NCc2cc3c(cc2O)CCO3)s1
179 to 183 °C | Cn1cc(C(O)CO)c2c3c(c(-c4ccccc4Cl)cc21)C(=O)NC3=O (centres undefined)
233 to 235 °C | O=c1ccc(Oc2ccc3c(c2)CCC2(CCNCC2)O3)n[nH]1
139 °C | CC(C)Nc1cccnc1N1CCN(C(=O)c2ccc(C(=O)N3CCOCC3)cc2)CC1
141 to 144 °C | O=S(=O)(c1ccccc1)c1ccc2cc[nH]c2c1
240 to 244 °C | N#Cc1cc(N)c(N)c(C#N)c1
82 to 83 °C | CCC(C)c1nn(-c2ccc(C(F)(F)F)cn2)cc1C=O (centres undefined)
110 °C | COc1cc2cc(C(=O)OCc3ccccc3)n(CC(=O)OC(C)(C)C)c2cn1
231 to 232 °C | CC1(C)CC(=O)c2c(C(=O)O)c[nH]c2C1
94 °C | CCCc1cc(-c2cc(OC)c3c(C)c(C)c(=O)oc3c2)on1
120 to 122 °C | COc1ccc(CNc2cc(Cn3c(C(=O)c4cc(C)cc(C)c4)c(C(C)C)c(=O)[nH]c3=O)cc(F)n2)cc1
146 to 147 °C | CC(C)(O)CCC[C@@](C)(CC#CC(O)(C(F)(F)F)C(F)(F)F)[C@H]1CC[C@H]2[C@@H](O)CCC[C@]12C
94 to 95 °C | c1csc(-c2noc(COc3ccc(CCCCn4ccnc4)cc3)n2)c1
124 to 125 °C | Oc1ccc(CCCCn2ccnc2)cc1
69 to 70 °C | Cc1cc(Cl)c([N+](=O)[O-])c(Cl)n1
147 to 150 °C | CC(=O)Cc1cc([C@]2(c3cccc(-c4cccnc4F)c3)N=C(N)N(C)C2=O)cn1CCCF
155 to 156 °C | c1ccc(CNCC2CCn3c(nc4ccccc43)S2)cc1 (centres undefined)
117 to 120 °C | CC(C)(C)c1ccc(C(=O)CCC(=O)O)cc1
187 to 188 °C | Cc1c2c(nc3ccccc13)C(=Cc1ccc(Cl)c(Cl)c1)CC2
164 to 165 °C | CCNc1nc(-c2ccc(NC(=O)NCc3cccnc3)cc2)ccc1C(=O)NCCN1CCCCC1
115 to 117 °C | O=C(Nc1ccc(Oc2ccnc(N3CCC4(CC3)OCCO4)n2)c2ccccc12)c1cc(F)cc(N2CCOCC2)c1
126 to 128 °C | CCOC(=O)C=Cc1ccc(Oc2nsnc(Cl)c2=O)cc1
250 °C | COC(=O)[C@H](O)[C@@H](NC(=O)OC(C)(C)C)c1ccc(C#N)cc1
93 to 95 °C | COC(=O)c1ccccc1COc1cccc2oc(C)cc12

melting point | SMILES
170 to 172 °C | Cc1ccnc(Cn2ccnc2)c1O
112 to 113 °C | O=C(O)c1ccc(C(F)F)o1
150 to 151 °C | CCOC(=O)COc1ccc2c(C)c(CCN(CC)CC)c(=O)oc2c1Br
174 °C | c1cc2cc3cnccc3cc2cn1
93 to 98 °C | COC(=O)Cc1ccc(Oc2ccc(S(C)(=O)=O)cc2)cc1
104 to 108 °C | COc1cc(OCC2CCCCC2)ccc1/C=C/c1cc(/C=C/c2ccc3cc[nH]c3c2)[nH]n1
139 to 141 °C | Cc1cc(C)n(Cc2ccc(Cl)c(Cl)c2)c(=O)c1C#N
186 to 188 °C | CCOC(=O)CNc1nc2cccccc-2c1C#N
93 °C | O=C(O)CCCCCCCCCCc1ccc(Cl)cc1
120 to 122 °C | COC(=O)CCc1ccc(C(=O)O)cc1[N+](=O)[O-]
185 to 186 °C | COc1ccccc1C1OC2(CCNCC2)N2CCCCC12 (centres undefined)
132 to 134 °C | CCCCCCC1c2sccc2CCN1CCNC(=O)c1ccc(NS(C)(=O)=O)cc1 (centres undefined)
185 to 187 °C | COc1ccc(Br)c(-n2c(=O)[nH]c(=O)n(C)c2=O)c1
138 to 142 °C | CCN1C(=O)C(C)(C)C(=O)N(C)c2cc(CN(CCn3ccc4ccsc4c3=O)Cc3cnccc3C)ccc21
96 to 97 °C | CCOC(=O)c1cn(Cc2ccc(Oc3ccccc3)cc2)nc1OCc1nc(-c2ccccc2)oc1C
118 °C | N#CCc1ccccc1O
216 to 218 °C | CN(C)c1ccc(CC(=O)Nc2cc(CC3SC(=O)NC3=O)ccc2O)cc1 (centres undefined)
251 °C | NC(=O)c1[nH]c2cccnc2c1Sc1ccccc1
202 to 204 °C | CC(Cl)(Cl)C(NC(=O)c1cccc(Cl)c1)Nc1c(Nc2cccnc2)c(=O)c1=O (centres undefined)
200 °C | O=Cc1csc2ccc(O)cc12
183 to 187 °C | Fc1cc2c(cc1F)C(n1cc[nH]c1=S)CC2 (centres undefined)
75 to 79 °C | O=C(CS(=O)Cc1ccco1)C12CC3CC(CC(C3)C1)C2 (centres undefined)
146 to 148 °C | CCOC(=O)c1sc(N2CCN(CC3CC3(F)F)C2=O)nc1C (centres undefined)

SMILES | melting point
CN(C)Cc1nc(C=O)nn1-c1ccc(Cl)cc1C(=O)c1ccccc1 | 178 to 181 °C
O=[N+]([O-])c1ccc2c(c1)NP(=O)(N(CCCl)CCCl)OC2 (centres undefined) | 138 to 142 °C
CC(=O)NCC1CCC(C(=O)N2CC2C#N)CC1 (centres undefined) | 92 to 94 °C
